Calls of active or inactive are those of the source. No cut-off for these calls is given here.
Target: Phosphatidylinositol 4,5-bisphosphate 3-kinase catalytic subunit beta isoform (Homo sapiens, UniProt P42338)
Test: Inhibition of PI3Kbeta (unknown origin) using PIP2 as substrate by HTRF […] assay
Conditions: not given

Phosphatidylinositol 4,5-bisphosphate 3-kinase catalytic subunit beta isoform, sequence (P42338 whole entry, canonical isoform): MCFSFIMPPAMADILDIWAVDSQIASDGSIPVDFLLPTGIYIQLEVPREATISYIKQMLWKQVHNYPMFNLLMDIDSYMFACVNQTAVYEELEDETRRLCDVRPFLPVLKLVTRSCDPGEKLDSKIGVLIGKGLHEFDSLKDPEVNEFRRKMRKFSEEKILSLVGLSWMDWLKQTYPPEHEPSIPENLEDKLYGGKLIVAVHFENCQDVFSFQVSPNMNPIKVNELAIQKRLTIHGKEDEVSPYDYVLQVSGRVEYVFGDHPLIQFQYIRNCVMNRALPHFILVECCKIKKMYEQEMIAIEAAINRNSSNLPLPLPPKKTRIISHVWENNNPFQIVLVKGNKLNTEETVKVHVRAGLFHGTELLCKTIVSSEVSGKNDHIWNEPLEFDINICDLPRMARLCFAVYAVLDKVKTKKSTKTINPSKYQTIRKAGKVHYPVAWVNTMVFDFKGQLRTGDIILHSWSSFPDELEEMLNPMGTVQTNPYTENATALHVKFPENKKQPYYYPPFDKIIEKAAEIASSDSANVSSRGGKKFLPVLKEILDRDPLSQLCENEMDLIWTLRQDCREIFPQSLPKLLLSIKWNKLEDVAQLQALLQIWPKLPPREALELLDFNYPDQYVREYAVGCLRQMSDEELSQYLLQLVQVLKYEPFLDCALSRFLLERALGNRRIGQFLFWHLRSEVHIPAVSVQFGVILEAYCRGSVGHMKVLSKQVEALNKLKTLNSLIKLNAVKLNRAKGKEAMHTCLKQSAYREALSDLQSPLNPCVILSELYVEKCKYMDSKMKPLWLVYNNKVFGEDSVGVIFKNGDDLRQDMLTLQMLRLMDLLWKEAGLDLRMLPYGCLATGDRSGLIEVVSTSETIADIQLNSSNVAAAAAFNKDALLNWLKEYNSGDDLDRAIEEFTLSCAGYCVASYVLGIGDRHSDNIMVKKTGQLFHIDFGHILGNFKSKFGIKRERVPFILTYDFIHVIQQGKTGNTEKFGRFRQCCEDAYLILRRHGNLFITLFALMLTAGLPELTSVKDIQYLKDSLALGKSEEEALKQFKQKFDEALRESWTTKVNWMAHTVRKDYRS

| SMILES | IC50 [nM] |
| --- | --- |
| CCOC(=O)c1cnc2ccc(-c3cncc(NS(=O)(=O)c4ccccc4)c3)cn12 | 59 |
| COc1ncc(-c2ccc3ncn(CCCN4CCOCC4)c(=O)c3c2)cc1NS(=O)(=O)c1ccc(F)cc1F | 108 |
| COc1ncc(-c2ccc3ncc(C(=O)NCCN4CCOCC4)n3c2)cc1NS(=O)(=O)c1ccc(F)cc1F | 89 |
| COc1ncc(-c2ccc3ncc(C(=O)NCCCN4CCOCC4)n3c2)cc1NS(=O)(=O)c1ccc(F)cc1F | 106 |

Target: PI3-kinase p110-delta/p85-alpha (Homo sapiens, UniProt O00329)
Test: Inhibition of p110delta/p85alpha (unknown origin) using PIP2 as substrate by HTRF […] assay
Type: protein-complex assay
Conditions: not given

PI3-kinase p110-delta/p85-alpha, sequence (P27986 whole entry): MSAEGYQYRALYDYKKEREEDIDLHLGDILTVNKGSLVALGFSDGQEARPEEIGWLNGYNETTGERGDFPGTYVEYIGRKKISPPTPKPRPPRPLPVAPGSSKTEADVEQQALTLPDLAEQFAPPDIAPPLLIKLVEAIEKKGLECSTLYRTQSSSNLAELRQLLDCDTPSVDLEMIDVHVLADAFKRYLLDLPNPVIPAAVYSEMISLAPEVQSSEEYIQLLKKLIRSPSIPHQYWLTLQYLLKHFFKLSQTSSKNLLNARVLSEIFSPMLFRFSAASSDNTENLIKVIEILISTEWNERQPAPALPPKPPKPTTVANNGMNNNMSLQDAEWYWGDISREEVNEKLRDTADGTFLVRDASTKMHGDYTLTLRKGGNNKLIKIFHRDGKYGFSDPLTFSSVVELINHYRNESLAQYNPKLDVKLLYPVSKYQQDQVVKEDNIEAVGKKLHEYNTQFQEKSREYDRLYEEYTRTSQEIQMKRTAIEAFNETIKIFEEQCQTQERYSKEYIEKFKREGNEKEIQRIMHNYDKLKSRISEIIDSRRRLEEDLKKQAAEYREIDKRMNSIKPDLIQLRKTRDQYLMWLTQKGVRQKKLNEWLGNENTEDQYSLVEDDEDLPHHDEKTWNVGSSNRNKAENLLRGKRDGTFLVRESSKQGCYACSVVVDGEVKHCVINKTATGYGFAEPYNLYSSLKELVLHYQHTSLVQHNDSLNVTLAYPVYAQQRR
PI3-kinase p110-delta/p85-alpha, sequence (O00329 whole entry): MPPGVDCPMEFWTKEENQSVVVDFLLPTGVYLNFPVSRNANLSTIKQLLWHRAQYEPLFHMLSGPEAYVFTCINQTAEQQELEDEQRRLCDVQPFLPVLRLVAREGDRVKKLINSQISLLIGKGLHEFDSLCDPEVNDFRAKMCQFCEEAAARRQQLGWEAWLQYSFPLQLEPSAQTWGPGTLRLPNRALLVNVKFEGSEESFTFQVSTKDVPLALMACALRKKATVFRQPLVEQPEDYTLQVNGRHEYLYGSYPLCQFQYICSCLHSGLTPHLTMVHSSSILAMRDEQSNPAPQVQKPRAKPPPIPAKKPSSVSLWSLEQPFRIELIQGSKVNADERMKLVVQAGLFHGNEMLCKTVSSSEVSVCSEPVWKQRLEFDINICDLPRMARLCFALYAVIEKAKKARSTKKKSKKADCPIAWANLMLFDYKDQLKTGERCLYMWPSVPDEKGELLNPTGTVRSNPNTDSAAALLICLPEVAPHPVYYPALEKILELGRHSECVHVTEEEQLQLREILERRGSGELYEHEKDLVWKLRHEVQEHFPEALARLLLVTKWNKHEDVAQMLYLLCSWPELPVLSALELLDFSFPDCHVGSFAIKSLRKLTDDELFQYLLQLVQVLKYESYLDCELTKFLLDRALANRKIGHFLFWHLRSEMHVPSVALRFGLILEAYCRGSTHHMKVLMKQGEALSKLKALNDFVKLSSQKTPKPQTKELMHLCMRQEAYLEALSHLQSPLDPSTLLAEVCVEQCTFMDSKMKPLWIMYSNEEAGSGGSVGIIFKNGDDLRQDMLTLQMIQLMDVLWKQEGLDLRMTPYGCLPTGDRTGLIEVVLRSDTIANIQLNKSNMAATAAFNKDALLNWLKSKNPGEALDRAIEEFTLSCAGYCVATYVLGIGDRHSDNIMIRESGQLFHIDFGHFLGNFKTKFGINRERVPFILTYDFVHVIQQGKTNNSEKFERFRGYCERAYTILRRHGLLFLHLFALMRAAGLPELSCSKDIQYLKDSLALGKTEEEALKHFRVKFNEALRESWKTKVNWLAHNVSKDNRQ

| SMILES | IC50 [nM] |
| --- | --- |
| COc1ncc(-c2ccc3ncn(CCCN4CCOCC4)c(=O)c3c2)cc1NS(=O)(=O)c1ccc(F)cc1F | 69 |
| COc1ncc(-c2ccc3ncc(C(=O)NCCCN4CCOCC4)n3c2)cc1NS(=O)(=O)c1ccc(F)cc1F | 101 |

System: A549
Test: cells
Conditions: Homo sapiens, A549, 72 h
Description: Antiproliferative activity against human A549 cells after 72 hrs by SRB assay

| SMILES | IC50 [nM] |
| --- | --- |
| COc1ncc(-c2ccc3ncn(CCCn4ccccc4=O)c(=O)c3c2)cc1NS(=O)(=O)c1ccc(F)cc1F | 570 |
| COc1ncc(-c2ccc3ncc(C(=O)NCc4ccncc4)n3c2)cc1NS(=O)(=O)c1ccc(F)cc1F | 500 |
| CCOC(=O)c1cnc2ccc(-c3cncc(NS(=O)(=O)c4ccccc4)c3)cn12 | 260 |
| COc1ncc(-c2ccc3ncc(C(=O)O)n3c2)cc1NS(=O)(=O)c1ccc(F)cc1F | 1150 |
| CCOC(=O)c1cnc2ccc(-c3cnc(OC)c(NS(=O)(=O)c4ccc(F)cc4F)c3)cn12 | 300 |
| COc1ncc(-c2ccc3ncn(CCCn4ccnc4)c(=O)c3c2)cc1NS(=O)(=O)c1ccc(F)cc1F | 200 |
| COc1ncc(-c2ccc3ncn(CCCCC(=O)N4CCOCC4)c(=O)c3c2)cc1NS(=O)(=O)c1ccc(F)cc1F | 2540 |
| COc1ncc(-c2ccc3ncn(CCCN4CCOCC4)c(=O)c3c2)cc1NS(=O)(=O)c1ccc(F)cc1F | 100 |
| COc1ncc(-c2ccc3ncc(C(=O)NCCCN4CCOCC4)n3c2)cc1NS(=O)(=O)c1ccc(F)cc1F | 500 |

System: HCT-116
Test: cells
Conditions: Homo sapiens, HCT-116, 72 h

| SMILES | IC50 [nM] |
| --- | --- |
| COc1ncc(-c2ccc3ncn(CCCn4ccccc4=O)c(=O)c3c2)cc1NS(=O)(=O)c1ccc(F)cc1F | 1360 |
| COc1ncc(-c2ccc3ncc(C(=O)NCc4ccncc4)n3c2)cc1NS(=O)(=O)c1ccc(F)cc1F | 310 |
| CCOC(=O)c1cnc2ccc(-c3cncc(NS(=O)(=O)c4ccccc4)c3)cn12 | 540 |
| COc1ncc(-c2ccc3ncc(C(=O)O)n3c2)cc1NS(=O)(=O)c1ccc(F)cc1F | 1310 |
| CCOC(=O)c1cnc2ccc(-c3cnc(OC)c(NS(=O)(=O)c4ccc(F)cc4F)c3)cn12 | 90 |
| COc1ncc(-c2ccc3ncn(CCCn4ccnc4)c(=O)c3c2)cc1NS(=O)(=O)c1ccc(F)cc1F | 800 |
| COc1ncc(-c2ccc3ncn(CCCCC(=O)N4CCOCC4)c(=O)c3c2)cc1NS(=O)(=O)c1ccc(F)cc1F | 1110 |
| COc1ncc(-c2ccc3ncn(CCCN4CCOCC4)c(=O)c3c2)cc1NS(=O)(=O)c1ccc(F)cc1F | 200 |
| COc1ncc(-c2ccc3ncc(C(=O)NCCCN4CCOCC4)n3c2)cc1NS(=O)(=O)c1ccc(F)cc1F | 100 |

Target: Phosphatidylinositol 4,5-bisphosphate 3-kinase catalytic subunit gamma isoform (Homo sapiens, UniProt P48736)
Test: Inhibition of N-terminal His6-tagged recombinant full-length human PI3Kgamma expressed in baculovirus infected Sf21 insect cells using PIP2 as substrate by HTRF […] assay
Conditions: not given

Phosphatidylinositol 4,5-bisphosphate 3-kinase catalytic subunit gamma isoform, sequence (P48736 whole entry, canonical isoform): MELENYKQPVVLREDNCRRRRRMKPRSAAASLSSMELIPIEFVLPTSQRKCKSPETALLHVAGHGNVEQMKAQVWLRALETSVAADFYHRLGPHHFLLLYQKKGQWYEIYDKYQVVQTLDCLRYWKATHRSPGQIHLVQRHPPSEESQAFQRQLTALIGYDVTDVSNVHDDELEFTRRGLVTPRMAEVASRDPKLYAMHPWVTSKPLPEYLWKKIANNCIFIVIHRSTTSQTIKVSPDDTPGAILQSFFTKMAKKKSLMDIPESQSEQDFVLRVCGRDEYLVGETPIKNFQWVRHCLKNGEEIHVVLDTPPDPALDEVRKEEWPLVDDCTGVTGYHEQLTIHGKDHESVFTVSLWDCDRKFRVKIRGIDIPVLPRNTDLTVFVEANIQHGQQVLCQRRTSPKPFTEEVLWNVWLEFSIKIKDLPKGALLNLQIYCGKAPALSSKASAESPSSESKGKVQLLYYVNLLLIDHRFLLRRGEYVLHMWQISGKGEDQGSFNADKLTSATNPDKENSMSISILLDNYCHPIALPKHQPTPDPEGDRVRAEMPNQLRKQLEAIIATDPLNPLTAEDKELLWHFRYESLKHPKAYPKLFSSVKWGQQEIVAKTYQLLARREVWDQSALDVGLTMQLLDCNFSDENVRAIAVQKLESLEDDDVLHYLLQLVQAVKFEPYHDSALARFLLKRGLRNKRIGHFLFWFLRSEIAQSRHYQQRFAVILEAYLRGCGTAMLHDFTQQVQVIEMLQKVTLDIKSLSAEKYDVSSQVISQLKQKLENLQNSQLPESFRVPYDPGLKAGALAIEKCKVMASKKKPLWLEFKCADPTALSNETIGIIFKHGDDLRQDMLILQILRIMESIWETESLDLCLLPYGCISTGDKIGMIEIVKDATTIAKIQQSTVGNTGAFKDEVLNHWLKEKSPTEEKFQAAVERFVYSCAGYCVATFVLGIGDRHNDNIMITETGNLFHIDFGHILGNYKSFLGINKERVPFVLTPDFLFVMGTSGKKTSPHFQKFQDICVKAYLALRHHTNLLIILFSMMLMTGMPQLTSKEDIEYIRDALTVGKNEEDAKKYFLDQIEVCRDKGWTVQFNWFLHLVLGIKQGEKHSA

| SMILES | IC50 [nM] |
| --- | --- |
| CCOC(=O)c1cnc2ccc(-c3cncc(NS(=O)(=O)c4ccccc4)c3)cn12 | 104 |
| COc1ncc(-c2ccc3ncn(CCCN4CCOCC4)c(=O)c3c2)cc1NS(=O)(=O)c1ccc(F)cc1F | 116 |
| COc1ncc(-c2ccc3ncc(C(=O)NCCN4CCOCC4)n3c2)cc1NS(=O)(=O)c1ccc(F)cc1F | 45 |
| COc1ncc(-c2ccc3ncc(C(=O)NCCCN4CCOCC4)n3c2)cc1NS(=O)(=O)c1ccc(F)cc1F | 37 |

System: SNU-638
Test: Antiproliferative activity against human SNU638 cells after 72 hrs by SRB assay
Conditions: SNU-638, 72 h

| SMILES | IC50 [nM] |
| --- | --- |
| COc1ncc(-c2ccc3ncn(CCCn4ccccc4=O)c(=O)c3c2)cc1NS(=O)(=O)c1ccc(F)cc1F | 2260 |
| COc1ncc(-c2ccc3ncc(C(=O)NCc4ccncc4)n3c2)cc1NS(=O)(=O)c1ccc(F)cc1F | 490 |
| CCOC(=O)c1cnc2ccc(-c3cncc(NS(=O)(=O)c4ccccc4)c3)cn12 | 680 |
| COc1ncc(-c2ccc3ncc(C(=O)O)n3c2)cc1NS(=O)(=O)c1ccc(F)cc1F | 1460 |
| CCOC(=O)c1cnc2ccc(-c3cnc(OC)c(NS(=O)(=O)c4ccc(F)cc4F)c3)cn12 | 360 |
| COc1ncc(-c2ccc3ncn(CCCn4ccnc4)c(=O)c3c2)cc1NS(=O)(=O)c1ccc(F)cc1F | 250 |
| COc1ncc(-c2ccc3ncn(CCCCC(=O)N4CCOCC4)c(=O)c3c2)cc1NS(=O)(=O)c1ccc(F)cc1F | > 20000 |
| COc1ncc(-c2ccc3ncn(CCCN4CCOCC4)c(=O)c3c2)cc1NS(=O)(=O)c1ccc(F)cc1F | 280 |
| COc1ncc(-c2ccc3ncc(C(=O)NCCCN4CCOCC4)n3c2)cc1NS(=O)(=O)c1ccc(F)cc1F | 300 |

Organism: Homo sapiens
Test: Inhibition of PI3K in human HCT116 cells assessed as reduction in Akt phosphorylation at Ser473 residue at 0.5 uM after 24 hrs by Western blot analysis
Type: cell-based
Conditions: not given

| SMILES | inhibition |
| --- | --- |
| CCOC(=O)c1cnc2ccc(-c3cncc(NS(=O)(=O)c4ccccc4)c3)cn12 | Active |

Organism: Homo sapiens
Test: Inhibition of PI3K in human HCT116 cells assessed as reduction in Akt phosphorylation at Ser473 residue after 24 hrs by Western blot analysis
Type: cell-based
Conditions: not given

| SMILES | inhibition |
| --- | --- |
| COc1ncc(-c2ccc3ncc(C(=O)NCCN4CCOCC4)n3c2)cc1NS(=O)(=O)c1ccc(F)cc1F | Dose-dependent effect |

System: SK-HEP1
Test: Antiproliferative activity against human SKHEP1 cells after 72 hrs by SRB assay
Conditions: SK-HEP1, 72 h

| SMILES | IC50 [nM] |
| --- | --- |
| COc1ncc(-c2ccc3ncn(CCCn4ccccc4=O)c(=O)c3c2)cc1NS(=O)(=O)c1ccc(F)cc1F | 810 |
| COc1ncc(-c2ccc3ncc(C(=O)NCc4ccncc4)n3c2)cc1NS(=O)(=O)c1ccc(F)cc1F | 980 |
| CCOC(=O)c1cnc2ccc(-c3cncc(NS(=O)(=O)c4ccccc4)c3)cn12 | 1090 |
| COc1ncc(-c2ccc3ncc(C(=O)O)n3c2)cc1NS(=O)(=O)c1ccc(F)cc1F | 750 |
| CCOC(=O)c1cnc2ccc(-c3cnc(OC)c(NS(=O)(=O)c4ccc(F)cc4F)c3)cn12 | 300 |
| COc1ncc(-c2ccc3ncn(CCCn4ccnc4)c(=O)c3c2)cc1NS(=O)(=O)c1ccc(F)cc1F | > 20000 |
| COc1ncc(-c2ccc3ncn(CCCCC(=O)N4CCOCC4)c(=O)c3c2)cc1NS(=O)(=O)c1ccc(F)cc1F | 2250 |
| COc1ncc(-c2ccc3ncn(CCCN4CCOCC4)c(=O)c3c2)cc1NS(=O)(=O)c1ccc(F)cc1F | 600 |
| COc1ncc(-c2ccc3ncc(C(=O)NCCCN4CCOCC4)n3c2)cc1NS(=O)(=O)c1ccc(F)cc1F | 400 |

System: MDA-MB-231
Test: Antiproliferative activity against human MDA-MB-231 cells after 72 hrs by SRB assay
Conditions: MDA-MB-231, 72 h

| SMILES | IC50 [nM] |
| --- | --- |
| COc1ncc(-c2ccc3ncn(CCCn4ccccc4=O)c(=O)c3c2)cc1NS(=O)(=O)c1ccc(F)cc1F | 150 |
| COc1ncc(-c2ccc3ncc(C(=O)NCc4ccncc4)n3c2)cc1NS(=O)(=O)c1ccc(F)cc1F | 420 |
| CCOC(=O)c1cnc2ccc(-c3cncc(NS(=O)(=O)c4ccccc4)c3)cn12 | 760 |
| COc1ncc(-c2ccc3ncc(C(=O)O)n3c2)cc1NS(=O)(=O)c1ccc(F)cc1F | 370 |
| CCOC(=O)c1cnc2ccc(-c3cnc(OC)c(NS(=O)(=O)c4ccc(F)cc4F)c3)cn12 | 120 |
| COc1ncc(-c2ccc3ncn(CCCn4ccnc4)c(=O)c3c2)cc1NS(=O)(=O)c1ccc(F)cc1F | 11700 |
| COc1ncc(-c2ccc3ncn(CCCCC(=O)N4CCOCC4)c(=O)c3c2)cc1NS(=O)(=O)c1ccc(F)cc1F | 1830 |
| COc1ncc(-c2ccc3ncn(CCCN4CCOCC4)c(=O)c3c2)cc1NS(=O)(=O)c1ccc(F)cc1F | 500 |
| COc1ncc(-c2ccc3ncc(C(=O)NCCCN4CCOCC4)n3c2)cc1NS(=O)(=O)c1ccc(F)cc1F | 300 |

System: HUVEC
Test: Cytotoxicity against HUVEC after 72 hrs by SRB assay
Conditions: Homo sapiens

| SMILES | IC50 [nM] |
| --- | --- |
| COc1ncc(-c2ccc3ncn(CCCN4CCOCC4)c(=O)c3c2)cc1NS(=O)(=O)c1ccc(F)cc1F | 8970 |
| COc1ncc(-c2ccc3ncc(C(=O)NCCCN4CCOCC4)n3c2)cc1NS(=O)(=O)c1ccc(F)cc1F | 3560 |

Target: PI3-kinase p110-alpha/p85-alpha (Homo sapiens, UniProt P42336)
Test: Inhibition of N-terminal His6-tagged recombinant full-length human p110alpha/untagged recombinant full length human p85alpha expressed in baculovirus infected Sf21 insect cells using PIP2 as substrate by HTRF […] assay
Conditions: not given

PI3-kinase p110-alpha/p85-alpha, sequence (P27986 whole entry): as the sequence (P27986 whole entry) above
PI3-kinase p110-alpha/p85-alpha, sequence (P42336 whole entry): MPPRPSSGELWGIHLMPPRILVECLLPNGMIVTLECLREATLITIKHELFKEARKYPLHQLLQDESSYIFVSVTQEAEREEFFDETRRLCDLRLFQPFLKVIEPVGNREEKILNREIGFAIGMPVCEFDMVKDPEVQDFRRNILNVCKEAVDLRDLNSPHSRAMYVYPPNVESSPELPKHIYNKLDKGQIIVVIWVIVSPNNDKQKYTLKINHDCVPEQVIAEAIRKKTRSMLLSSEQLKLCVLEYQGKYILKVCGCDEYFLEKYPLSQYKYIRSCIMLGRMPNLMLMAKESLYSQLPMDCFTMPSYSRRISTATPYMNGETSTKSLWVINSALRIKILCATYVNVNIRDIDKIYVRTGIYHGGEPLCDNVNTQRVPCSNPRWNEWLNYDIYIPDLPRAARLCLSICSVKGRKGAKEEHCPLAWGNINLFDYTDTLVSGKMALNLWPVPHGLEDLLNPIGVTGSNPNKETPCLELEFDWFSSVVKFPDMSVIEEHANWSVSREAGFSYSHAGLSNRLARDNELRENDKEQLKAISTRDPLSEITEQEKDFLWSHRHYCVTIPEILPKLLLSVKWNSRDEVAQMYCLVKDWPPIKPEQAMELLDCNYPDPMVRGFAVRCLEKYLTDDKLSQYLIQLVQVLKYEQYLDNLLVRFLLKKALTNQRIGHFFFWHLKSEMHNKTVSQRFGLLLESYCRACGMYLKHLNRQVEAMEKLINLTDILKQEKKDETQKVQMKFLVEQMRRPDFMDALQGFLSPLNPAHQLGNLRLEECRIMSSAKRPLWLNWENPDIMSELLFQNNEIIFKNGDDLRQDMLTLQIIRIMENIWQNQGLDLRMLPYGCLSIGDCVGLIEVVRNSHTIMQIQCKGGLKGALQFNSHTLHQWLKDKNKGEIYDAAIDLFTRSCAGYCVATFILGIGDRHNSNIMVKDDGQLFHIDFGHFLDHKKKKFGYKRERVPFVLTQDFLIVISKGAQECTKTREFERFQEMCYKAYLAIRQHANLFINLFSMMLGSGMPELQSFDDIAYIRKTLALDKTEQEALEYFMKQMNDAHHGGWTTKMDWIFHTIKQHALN

| SMILES | IC50 [nM] |
| --- | --- |
| COc1ncc(-c2ccc3ncn(CCCN4CCOCC4)c(=O)c3c2)cc1NS(=O)(=O)c1ccc(F)cc1F | 6.5 |
| COc1ncc(-c2ccc3ncc(C(=O)NCCCN4CCOCC4)n3c2)cc1NS(=O)(=O)c1ccc(F)cc1F | 3.8 |

— ChEMBL document CHEMBL4190317, “Design, synthesis, and biological evaluation of novel 3-substituted imidazo[1,2-a]pyridine and quinazolin-4(3H)-one derivatives as PI3Kα inhibitors” (Eur J Med Chem, 2017)
